Read-outs that look alike come from different tables or passages of the source.
System: HIV-1 (H9IIIB or NL4-3 virus) replication in MT4-GFP cells
Assay: microbe, parasite or virus in culture
Format: cell-based
Conditions: inhibition of reproductive ratio R0, 48-72 h post-infection
[1] = Human immunodeficiency virus 1, NL43, MT4-GFP cells infected with HIV-1, 100% normal human serum, read-out: ViKinG IP (nM) with 100% NHS
[2] = Human immunodeficiency virus 1, NL43, MT4-GFP cells infected with HIV-1, serum free conditions (0% NHS), read-out: ViKinG IP (nM) with 0% NHS
[3] = MT4-GFP cells infected with HIV-1, 100% normal human serum, read-out: ViKinG IP (nM) with 100% NHS
[4] = MT4-GFP cells infected with HIV-1, serum free conditions (0% NHS), read-out: ViKinG IP (nM) with 0% NHS

SMILES | IC50 [1] | IC50 [2] | IC50 [3] | IC50 [4] | IC50 (Human immunodeficiency virus 1, NL43, MT4-GFP cells infected with HIV-1, 10% normal human serum, read-out: ViKinG IP (nM) with 10% NHS)
CCCN1C(=O)c2c(O)c(=O)c(C(=O)NCc3ccc(F)cc3F)cn2CC12CCOC2 (racemic) [Compound 67] | 3600 nM | 6.6 nM | – | – | –
CCOP(=O)(CCCN1n2cc(C(=O)NCc3ccc(F)cc3F)c(=O)c(O)c2C(=O)N(C)C12CCOC2)OCC (racemic) [Compound 161] | 227 nM | – | – | – | –
CCN1C(=O)c2c(O)c(=O)c(-c3nnc(Cc4ccc(F)cc4F)s3)cn2N(C)C12CCOC2 (single isomer, unassigned) [Compound 35] | – | – | 133 nM | 1.7 nM | –
CCN1C(=O)c2c(O)c(=O)c(-c3nnc(Cc4ccc(F)cc4F)s3)cn2N(C)C12CCOC2 (single isomer, unassigned) [Compound 36] | – | – | 368 nM | 3.8 nM | –
COCCN1C(=O)c2c(O)c(=O)c(C(=O)NCc3ccc(F)cc3F)cn2CC12CCOC2 (single isomer, unassigned) [Compound 49] | 123 nM | 2.9 nM | – | – | –
COCCN1C(=O)c2c(O)c(=O)c(C(=O)NCc3ccc(F)cc3F)cn2CC12CCOC2 (single isomer, unassigned) [Compound 50] | – | – | 107 nM | 3.1 nM | –
COCCN1C(=O)c2c(O)c(=O)c(C(=O)NCc3ccc(F)cc3)cn2CC12CCOC2 (single isomer, unassigned) [Compound 51] | 196 nM | 4.8 nM | – | – | –
COCCN1C(=O)c2c(O)c(=O)c(C(=O)NCc3ccc(F)c(Cl)c3)cn2CC12CCOC2 (single isomer, unassigned) [Compound 52] | 2000 nM | 4.8 nM | – | – | –
COCCN1C(=O)c2c(O)c(=O)c(C(=O)NCc3ccc(F)c(C)c3F)cn2CC12CCOC2 (single isomer, unassigned) [Compound 53] | 2570 nM | 5.3 nM | – | – | –
COCCN1C(=O)c2c(O)c(=O)c(C(=O)NCc3ccc(F)c(Cl)c3F)cn2CC12CCOC2 (single isomer, unassigned) [Compound 54] | 989 nM | 2.3 nM | – | – | –
CN1C(=O)c2c(O)c(=O)c(C(=O)NCc3ccc(F)c(Cl)c3F)cn2CC12CCOC2 (single isomer, unassigned) [Compound 56] | 100 nM | 1.2 nM | – | – | –
CN1C(=O)c2c(O)c(=O)c(C(=O)NCc3ccc(F)cc3F)cn2CC12CCOC2 (single isomer, unassigned) [Compound 57] | 36 nM | 1.6 nM | – | – | –
CN1C(=O)c2c(O)c(=O)c(C(=O)NCc3ccc(F)cc3F)cn2CC12CCOC2 (single isomer, unassigned) [Compound 58] | – | – | 27 nM | 1.9 nM | 5 nM
CN1C(=O)c2c(O)c(=O)c(C(=O)NCc3ccc(F)cc3)cn2CC12CCOC2 (single isomer, unassigned) [Compound 59] | 56 nM | 1.9 nM | – | – | –
CN1C(=O)c2c(O)c(=O)c(C(=O)NCc3ccc(F)cc3)cn2CC12CCOC2 (single isomer, unassigned) [Compound 60] | – | – | 42 nM | 3.1 nM | –
CN1C(=O)c2c(O)c(=O)c(C(=O)NCc3ccc(F)c(Cl)c3)cn2CC12CCOC2 (single isomer, unassigned) [Compound 61] | 119 nM | 2.4 nM | – | – | –
CN1C(=O)c2c(O)c(=O)c(C(=O)NCc3ccc(F)c(Cl)c3)cn2CC12CCOC2 (single isomer, unassigned) [Compound 62] | – | – | 72 nM | 3.1 nM | –
CN1C(=O)c2c(O)c(=O)c(C(=O)NCc3c(F)cc(F)cc3F)cn2CC12CCOC2 (single isomer, unassigned) [Compound 63] | 17 nM | 1.9 nM | – | – | –
CN1C(=O)c2c(O)c(=O)c(C(=O)NCc3c(F)cc(F)cc3F)cn2CC12CCOC2 (single isomer, unassigned) [Compound 64] | – | – | 26 nM | 3.3 nM | –
CN1C(=O)c2c(O)c(=O)c(C(=O)NCc3cccc(Cl)c3F)cn2CC12CCOC2 (single isomer, unassigned) [Compound 65] | 60 nM | 1.5 nM | – | – | –
CN1C(=O)c2c(O)c(=O)c(C(=O)NCc3cccc(Cl)c3F)cn2CC12CCOC2 (single isomer, unassigned) [Compound 66] | – | – | 40 nM | 1.5 nM | –
COCCN1C(=O)c2c(O)c(=O)c(C(=O)NCc3ccc(F)c(F)c3F)cn2CC12CCOC2 (single isomer, unassigned) [Compound 71] | 350 nM | 3.7 nM | – | – | –
COCCN1C(=O)c2c(O)c(=O)c(C(=O)NCc3ccc(F)c(F)c3F)cn2CC12CCOC2 (single isomer, unassigned) [Compound 72] | – | – | 290 nM | 4.6 nM | –
COCCCN1C(=O)c2c(O)c(=O)c(C(=O)NCc3ccc(F)cc3F)cn2CC12CCOC2 (single isomer, unassigned) [Compound 73] | 30 nM | 1.8 nM | – | – | –

SMILES | IC50 [1] | IC50 [2] | IC50 [3] | IC50 [4] | IC50 (Human immunodeficiency virus 1, NL43, MT4-GFP cells infected with HIV-1, 10% normal human serum, read-out: ViKinG IP (nM) with 10% NHS)
COCCCN1C(=O)c2c(O)c(=O)c(C(=O)NCc3ccc(F)cc3F)cn2CC12CCOC2 (single isomer, unassigned) [Compound 74] | – | – | 28 nM | 3.3 nM | –
COCN1C(=O)c2c(O)c(=O)c(C(=O)NCc3ccc(F)cc3F)cn2CC12CCOC2 (single isomer, unassigned) [Compound 75] | – | 1.8 nM | 559 nM | – | –
COCN1C(=O)c2c(O)c(=O)c(C(=O)NCc3ccc(F)cc3F)cn2CC12CCOC2 (single isomer, unassigned) [Compound 76] | – | – | 151 nM | 2.4 nM | –
CCOCCN1C(=O)c2c(O)c(=O)c(C(=O)NCc3ccc(F)cc3F)cn2CC12CCOC2 (single isomer, unassigned) [Compound 77] | 96 nM | 3 nM | – | – | –
CCOCCN1C(=O)c2c(O)c(=O)c(C(=O)NCc3ccc(F)cc3F)cn2CC12CCOC2 (single isomer, unassigned) [Compound 78] | – | – | 55 nM | 2.3 nM | –
CCOCCN1C(=O)c2c(O)c(=O)c(C(=O)NCc3cccc(Cl)c3F)cn2CC12CCOC2 (single isomer, unassigned) [Compound 79] | – | 2.3 nM | 603 nM | – | –
CCOCCN1C(=O)c2c(O)c(=O)c(C(=O)NCc3cccc(Cl)c3F)cn2CC12CCOC2 (single isomer, unassigned) [Compound 80] | – | – | 217 nM | 1.7 nM | –
COCCN1C(=O)c2c(O)c(=O)c(C(=O)NCc3ccc(F)cc3F)cn2CC12CCCOC2 (single isomer, unassigned) [Compound 83] | 3050 nM | 7.8 nM | – | – | –
COCCN1C(=O)c2c(O)c(=O)c(C(=O)NCc3ccc(F)cc3F)cn2CC12CCCOC2 (single isomer, unassigned) [Compound 84] | – | – | 1960 nM | 4.5 nM | –
COCCCN1C(=O)c2c(O)c(=O)c(C(=O)NCc3ccc(F)cc3F)cn2CC12CCCOC2 (single isomer, unassigned) [Compound 85] | – | 5.4 nM | 78 nM | – | –
COCCCN1C(=O)c2c(O)c(=O)c(C(=O)NCc3ccc(F)cc3F)cn2CC12CCCOC2 (single isomer, unassigned) [Compound 86] | – | – | 177 nM | 9.3 nM | –
CN1C(=O)c2c(O)c(=O)c(C(=O)NCc3c(F)cc(F)cc3F)cn2N(C)C12CCOC2 (single isomer, unassigned) [Compound 105] | 37 nM | 0.8 nM | – | – | –
CN1C(=O)c2c(O)c(=O)c(C(=O)NCc3c(F)cc(F)cc3F)cn2N(C)C12CCOC2 (single isomer, unassigned) [Compound 106] | – | – | 27 nM | 0.6 nM | –
CN1C(=O)c2c(O)c(=O)c(C(=O)NCc3ccc(F)c(Cl)c3)cn2N(C)C12CCOC2 (single isomer, unassigned) [Compound 107] | – | 1.2 nM | 790 nM | – | –
CN1C(=O)c2c(O)c(=O)c(C(=O)NCc3ccc(F)c(Cl)c3)cn2N(C)C12CCOC2 (single isomer, unassigned) [Compound 108] | – | – | 218 nM | 1.1 nM | –
CN1C(=O)c2c(O)c(=O)c(C(=O)NCc3cccc(Cl)c3F)cn2N(C)C12CCOC2 (single isomer, unassigned) [Compound 109] | 229 nM | 0.6 nM | – | – | –
CN1C(=O)c2c(O)c(=O)c(C(=O)NCc3cccc(Cl)c3F)cn2N(C)C12CCOC2 (single isomer, unassigned) [Compound 110] | – | – | 121 nM | – | –
CN1C(=O)c2c(O)c(=O)c(C(=O)NCc3ccccc3F)cn2N(C)C12CCOC2 (single isomer, unassigned) [Compound 111] | 158 nM | 1.6 nM | – | – | –
CN1C(=O)c2c(O)c(=O)c(C(=O)NCc3ccccc3F)cn2N(C)C12CCOC2 (single isomer, unassigned) [Compound 112] | – | – | 231 nM | 0.9 nM | –
CN1C(=O)c2c(O)c(=O)c(C(=O)NCc3ccc(F)cc3)cn2N(C)C12CCOC2 (single isomer, unassigned) [Compound 113] | 94 nM | 1.5 nM | – | – | –
CN1C(=O)c2c(O)c(=O)c(C(=O)NCc3ccc(F)cc3)cn2N(C)C12CCOC2 (single isomer, unassigned) [Compound 114] | – | – | 87 nM | 0.8 nM | –
CN1C(=O)c2c(O)c(=O)c(C(=O)NCc3c(F)cccc3F)cn2N(C)C12CCOC2 (single isomer, unassigned) [Compound 115] | 54 nM | 1.2 nM | – | – | –
CN1C(=O)c2c(O)c(=O)c(C(=O)NCc3c(F)cccc3F)cn2N(C)C12CCOC2 (single isomer, unassigned) [Compound 116] | – | – | 42 nM | 0.7 nM | –
CN1C(=O)c2c(O)c(=O)c(C(=O)NCc3ccc(F)c(Cl)c3F)cn2N(C)C12CCOC2 (single isomer, unassigned) [Compound 117] | – | 0.5 nM | 246 nM | – | –
